Measured values as given in patent US8193191B2, “Urotensin II receptor antagonists” (Janssen Pharmaceutica N.V., priority 2006, dated 2012).
Where two headings read alike, the source gives them in different places.

Legend:
[1] = target: T1, rat GPR14 (U-II receptor) (Rattus norvegicus, UniProt P49684); test: Rat UII Calcium Mobilization FLIPR Assay; format: cell-based; conditions: average value for the compound tested; read-out: Rat UII FLIPR Average IC50
T1 construct: expressed in transfected cells
T1 sequence (P49684 1-386): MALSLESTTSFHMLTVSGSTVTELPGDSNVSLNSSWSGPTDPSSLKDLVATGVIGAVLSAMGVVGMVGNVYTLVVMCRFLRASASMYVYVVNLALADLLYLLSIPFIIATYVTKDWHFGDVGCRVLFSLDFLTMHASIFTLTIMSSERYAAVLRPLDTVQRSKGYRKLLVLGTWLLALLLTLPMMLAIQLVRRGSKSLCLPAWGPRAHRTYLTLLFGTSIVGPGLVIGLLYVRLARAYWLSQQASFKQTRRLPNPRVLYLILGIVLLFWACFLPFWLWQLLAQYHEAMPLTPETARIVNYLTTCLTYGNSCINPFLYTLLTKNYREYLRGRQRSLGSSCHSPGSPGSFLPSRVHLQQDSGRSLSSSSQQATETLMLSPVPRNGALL
How it was run: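 CHO cells stably expressing rat U-II receptor, seeded 24 h before assay, were loaded with FLIPR calcium dye in HBSS/20 mM HEPES/0.1% BSA/2.5 mM probenecid, pH 7.4, for 1 h at 37° C. Calcium mobilization then read by FLIPR at 23° C.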

[2] = target: T2, Human UII receptor, 6D9 human rhabdomyosarcoma cells (Homo sapiens, UniProt Q9UKP6); test: Human UII Calcium Mobilization Assay; format: cell-based; conditions: average value, FLIPR TETRA, read-out: Human UII Ca^+ Mobilization Average IC50
T2 construct: 6D9: isolated by dilution subcloning of RMS13 cells, ATCC® Number: CRL-2061; host or cells: 6D9 human rhabdomyosarcoma cells (subclone of RMS13)
T2 sequence (Q9UKP6 1-389): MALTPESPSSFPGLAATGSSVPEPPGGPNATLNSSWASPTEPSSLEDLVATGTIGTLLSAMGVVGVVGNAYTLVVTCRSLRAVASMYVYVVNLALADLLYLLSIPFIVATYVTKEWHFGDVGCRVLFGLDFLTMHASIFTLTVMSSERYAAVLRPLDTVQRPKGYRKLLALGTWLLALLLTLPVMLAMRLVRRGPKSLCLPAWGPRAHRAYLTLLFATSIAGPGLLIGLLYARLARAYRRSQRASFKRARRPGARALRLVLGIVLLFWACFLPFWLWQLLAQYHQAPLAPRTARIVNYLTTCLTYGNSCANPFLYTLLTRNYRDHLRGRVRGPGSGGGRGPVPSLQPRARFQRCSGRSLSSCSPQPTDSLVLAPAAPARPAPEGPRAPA
How it was run: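 6D9 rhabdomyosarcoma cells loaded 45 min at 37° C with calcium dye (1.25 mM probenecid, 0.01% FBS, HBSS/20 mM HEPES). Antagonist and U-II agonist added at room temperature; FLIPR fluorescence read over 4 min; EC50/IC50 fitted. DMSO ≤0.1% final.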

[3] = target: T3, endogenous human UII receptor (Homo sapiens, UniProt Q9UKP6); test: Human Radioligand Binding Assay ((^125I)-U-II binding to human skeletal muscle myoblasts)
T3 sequence (Q9UKP6 1-389): T2 sequence (Q9UKP6 1-389)

[4] = read-out: Human UII Average Binding Ki, average value, (^125I)-U-II binding to human skeletal muscle myoblasts (HSMM), 25° C., 3 h

Row | SMILES | IC50 [1] [nM] | IC50 [2] [nM] | Ki [3] [nM] | Ki [3, 4] [nM]
1 | COc1ccc([C@@H](CCCNS(=O)(=O)c2cccs2)N2C(=O)c3cccc(N4CCN(Cc5cccnc5)CC4)c3C2=O)cc1OC [Cpd 171, (R)-thiophene-2-sulfonic acid {4-(3,4-dimethoxy-phenyl)-4-[1,3-dioxo-4-(4-pyridin-3-ylmethyl-piperazin-1-yl)-1,3-dihydro-isoindol-2-yl]-butyl}-amide] | 11 | 1000 | 370 | 
2 | COc1ccc(C(CCCNS(=O)(=O)c2c(C)noc2C)N2C(=O)c3cccc(N4CCN([C@H](C)c5ccccc5)CC4)c3C2=O)cc1OC (stereo partly drawn) [Cpd 112, 3,5-dimethyl-isoxazole-4-sulfonic acid (4-(3,4-dimethoxy-phenyl)-4-{1,3-dioxo-4-[4-(1R)-(1-phenyl-ethyl)-piperazin-1-yl]-1,3-dihydro-isoindol-2-yl}-butyl)-amide] | 69 | 1400 | 26 | 
3 | COc1ccc(CC(c2ccc(OC)c(OC)c2)N2C(=O)c3cccc(N4CCN([C@H](C)c5ccccc5)CC4)c3C2=O)cc1OC (stereo partly drawn) [Cpd 123, 2-[1,2-bis-(3,4-dimethoxy-phenyl)-ethyl]-4-[4-(1R)-(1-phenyl-ethyl)-piperazin-1-yl]-isoindole-1,3-dione] | 250 | 3100 | 570 | 
4 | COc1ccc(C(CCCNS(=O)(=O)c2ccc(-c3ccon3)s2)N2C(=O)c3cccc(N4CCN([C@H](C)c5ccccc5)CC4)c3C2=O)cc1OC (stereo partly drawn) [Cpd 95, 5-isoxazol-3-yl-thiophene-2-sulfonic acid (4-(3,4-dimethoxy-phenyl)-4-{1,3-dioxo-4-[4-(1R)-(1-phenyl-ethyl)-piperazin-1-yl]-1,3-dihydro-isoindol-2-yl}-butyl)-amide] | 89 | 200 | 110 | 
5 | COc1ccc([C@@H](CCCNS(=O)(=O)c2cccs2)N2C(=O)c3cccc(N4CCN(C5CCCC5)CC4)c3C2=O)cc1OC [Cpd 193, (R)-thiophene-2-sulfonic acid [4-[4-(4-cyclopentyl-piperazin-1-yl)-1,3-dioxo-1,3-dihydro-isoindol-2-yl]-4-(3,4-dimethoxy-phenyl)-butyl]-amide] | 7.9 | 520 | 86 | 
6 | COc1ccc([C@@H](CCCNS(=O)(=O)c2cccs2)N2C(=O)c3cccc(N4CCN(C(C)C)CC4)c3C2=O)cc1OC [Cpd 198, (R)-thiophene-2-sulfonic acid {4-(3,4-dimethoxy-phenyl)-4-[4-(4-isopropyl-piperazin-1-yl)-1,3-dioxo-1,3-dihydro-isoindol-2-yl]-butyl}-amide] | 3.5 | 150 |  | 45
7 | COc1ccc(CN2C(=O)c3ccc(N4CCN([C@H](C)c5ccccc5)CC4)cc3C2=O)cc1OC [Cpd 226, 2-(3,4-dimethoxy-benzyl)-5-[4-(1R)-(1-phenyl-ethyl)-piperazin-1-yl]-isoindole-1,3-dione] | 10000 | > 10000 | > 300 | 
8 | CCN1CCN(c2cccc3c2C(=O)N([C@H](CCCNS(=O)(=O)c2cccs2)c2ccc(OC)c(OC)c2)C3=O)CC1 [Cpd 168, (R)-thiophene-2-sulfonic acid {4-(3,4-dimethoxy-phenyl)-4-[4-(4-ethyl-piperazin-1-yl)-1,3-dioxo-1,3-dihydro-isoindol-2-yl]-butyl}-amide] | 4.8 | 150 |  | 35
9 | COc1ccc([C@@H](CCCNS(=O)(=O)c2cnoc2C)N2C(=O)c3cccc(N4CCN([C@H](C)c5ccccc5)CC4)c3C2=O)cc1OC [Cpd 138, (R)-5-methyl-isoxazole-4-sulfonic acid (4-(3,4-dimethoxy-phenyl)-4-{1,3-dioxo-4-[4-(1R)-(1-phenyl-ethyl)-piperazin-1-yl]-1,3-dihydro-isoindol-2-yl}-butyl)-amide] | 20 | 130 |  | 32
10 | CCN1CCN(c2cccc3c2C(=O)N(C(CC2CCN(S(=O)(=O)O)CC2)c2ccc(OC)c(OC)c2)C3=O)CC1 (stereo not drawn) [Cpd 233, 4-{2-(3,4-dimethoxy-phenyl)-2-[4-(4-ethyl-piperazin-1-yl)-1,3-dioxo-1,3-dihydro-isoindol-2-yl]-ethyl}-piperidine-1-sulfonic acid] | 660 | 770 | 57 | 

Second part, led by results:

Row | IC50 [1] [nM] | IC50 [2] [nM] | Ki [3] [nM] | SMILES | Ki [3, 4] [nM]
11 | 15 | 1100 | 56 | COc1ccc([C@@H](CCCNC(=O)c2c(C)nn(C)c2C)N2C(=O)c3cccc(N4CCN([C@H](C)c5ccccc5)CC4)c3C2=O)cc1OC [Cpd 184, (R)-1,3,5-trimethyl-1H-pyrazole-4-carboxylic acid (4-(3,4-dimethoxy-phenyl)-4-{1,3-dioxo-4-[4-(1R)-(1-phenyl-ethyl)-piperazin-1-yl]-1,3-dihydro-isoindol-2-yl}-butyl)-amide] | 
12 | 29 | 290 | 46 | COc1ccc([C@@H](CCCNS(=O)(=O)c2c(C)noc2C)N2C(=O)c3cccc(N4CCN([C@H](C)c5ccccc5)CC4)c3C2=O)cc1OC [Cpd 139, (R)-3,5-dimethyl-isoxazole-4-sulfonic acid (4-(3,4-dimethoxy-phenyl)-4-{1,3-dioxo-4-[4-(1R)-(1-phenyl-ethyl)-piperazin-1-yl]-1,3-dihydro-isoindol-2-yl}-butyl)-amide] | 
13 | 8.9 | 280 | 110 | COc1ccc([C@@H](CCCNS(=O)(=O)c2cn(C)nc2C)N2C(=O)c3cccc(N4CCN([C@H](C)c5ccccc5)CC4)c3C2=O)cc1OC [Cpd 128, (R)-1,3-dimethyl-1H-pyrazole-4-sulfonic acid (4-(3,4-dimethoxy-phenyl)-4-{1,3-dioxo-4-[4-(1R)-(1-phenyl-ethyl)-piperazin-1-yl]-1,3-dihydro-isoindol-2-yl}-butyl)-amide] | 
14 | 13 | 1200 | 88 | COc1ccc([C@@H](CCCNC(=O)c2cn(C)cn2)N2C(=O)c3cccc(N4CCN([C@H](C)c5ccccc5)CC4)c3C2=O)cc1OC [Cpd 153, (R)-1-methyl-1H-imidazole-4-carboxylic acid (4-(3,4-dimethoxy-phenyl)-4-{1,3-dioxo-4-[4-(1R)-(1-phenyl-ethyl)-piperazin-1-yl]-1,3-dihydro-isoindol-2-yl}-butyl)-amide] | 
15 | 9.4 | 160 | 9 | COc1ccc([C@@H](CCCNS(=O)(=O)O)N2C(=O)c3cccc(N4CCN([C@H](C)c5ccccc5)CC4)c3C2=O)cc1OC [Cpd 129, (R)-(4-(3,4-dimethoxy-phenyl)-4-{1,3-dioxo-4-[4-(1R)-(1-phenyl-ethyl)-piperazin-1-yl]-1,3-dihydro-isoindol-2-yl}-butyl)-sulfamic acid] | 
16 | 8.8 | 570 | 23 | CCC(=O)NCCC[C@H](c1ccc(OC)c(OC)c1)N1C(=O)c2cccc(N3CCN([C@H](C)c4ccccc4)CC3)c2C1=O [Cpd 180, (R)-N-(4-(3,4-dimethoxy-phenyl)-4-{1,3-dioxo-4-[4-(1R)-(1-phenyl-ethyl)-piperazin-1-yl]-1,3-dihydro-isoindol-2-yl}-butyl)-propionamide] | 
17 | 15 | 760 | 71 | COc1ccc([C@@H](CCCNC(=O)[C@H]2CCCN2C(C)=O)N2C(=O)c3cccc(N4CCN([C@H](C)c5ccccc5)CC4)c3C2=O)cc1OC [Cpd 149, (R)-1-acetyl-pyrrolidine-2-carboxylic acid (R)-(4-(3,4-dimethoxy-phenyl)-4-{1,3-dioxo-4-[4-(1R)-(1-phenyl-ethyl)-piperazin-1-yl]-1,3-dihydro-isoindol-2-yl}-butyl)-amide] | 
18 | 170 | 2700 | 620 | COc1ccc(C(CCCNS(=O)(=O)c2cc(C)oc2C)N2C(=O)c3cccc(N4CCN([C@H](C)c5ccccc5)CC4)c3C2=O)cc1OC (stereo partly drawn) [Cpd 99, 2,5-dimethyl-furan-3-sulfonic acid (4-(3,4-dimethoxy-phenyl)-4-{1,3-dioxo-4-[4-(1R)-(1-phenyl-ethyl)-piperazin-1-yl]-1,3-dihydro-isoindol-2-yl}-butyl)-amide] | 
